Test results taken from patent publication US6900190B2, “Active substance combinations having insecticidal and acaricidal properties” (priority 2000, dated 2005).

Tested on: common spider mite (Tetranychus urticae)
Experiment: Tetranychus test (OP-resistant/spray treatment)
Type: in vivo
Settings: single active compound, 0.32 ppm, spray treatment of infested bean plants (Phaseolus vulgaris), OP-resistant mites
Text: The expected action for a given combination of two active compounds can be calculated as follows, using the formula of S. R. Colby, Weeds 15 (1967), 20-22: […]
If • X is the efficacy, expressed as % of the untreated control, when employing active compound A at an application rate of m g/ha or in a concentration of m ppm, • Y is the efficacy, expressed as % of the untreated control, when employing active compound B at an application rate of n g/ha or in a concentration of n ppm and • E is the efficacy, expressed as % of the untreated control, when employing active compounds A and B at application rates of m and n g/ha or in a concentration of m and n ppm, then [formula]
If the actual insecticidal kill rate exceeds the calculated value, the action of the combination is superadditive, i.e. a synergistic effect is present. In this case, the actually observed insecticidal kill rate must exceed the value calculated using the above formula for the expected insecticidal kill rate (E).
Tetranychus test (OP-resistant/spray treatment) […]
After the desired period of time, the effect in % is determined. […] The kill rates determined are calculated using Colby's formula.

SMILES | Kill rate in % after 14 d
Cc1cc(C)c(C2=C(OC(=O)CC(C)(C)C)C3(CCCC3)OC2=O)c(C)c1 [Ex. (I-b-1)] | 0%
COP(N)(=O)SC (centres unmarked) [Metamidophos, methamidophos] | 0%
